Assay [1] deals with T1, 20S human immunoproteasome (CT-L activity) (Homo sapiens, UniProt P28062).
T1 construct: purchased Boston Biochem
Put plainly: Inhibition of CT-L activity of the immunoproteasome (Suc-LLVY-AMC fluorogenic substrate). Format: biochemical. The conditions noted are these: for remaining activity at 5 µM: inhibitor at 5 μM, remaining enzyme activity, read-out: % IP activity (remaining activity of the enzyme); for IC50: unit inferred, read-out: IC50 values against the immunoproteasome; for inhibition of the CT-L activity of the immunoproteasome: 5 µM. The protocol: (§1) The computationally selected 13 compounds were tested for their inhibitory activity against the CT-L activity of the immunoproteasome. The identified active compounds were also tested for their inhibitory activity against the CT-L activity of the constitutive proteasome. For the initial activity screening, the selected compounds were dissolved in DMSO and used at a concentration of 5 μM. Epoxomicin ([…]), which reached the 100% inhibition, was used as a positive control. 20S human immunoproteasome and constitutive proteasome (Boston Biochem) were 2-fold diluted in an assay buffer (20 mM Tris/Cl, pH 8.0, 0.5 mM EDTA, 0.035% SDS).^17
(§2) Specifically, selected compounds were preincubated with 50 ng/well of the immunoproteasome or constitutive proteasome in a 96-well plate at room temperature for 13 min. 100 μM of Suc-LLVY-AMC, a fluorogenic peptide substrate for the CT-L activity, was then added to the wells. Fluorogenic signals of the free AMC (Ex: 360, Em: 460)^18 were recorded for 90 min. The initial reaction velocities (RFU/min) of each compound were calculated as a percentage of the positive control. All enzyme activity assays were carried out in triplicate.

The target in assay [2] is T2, 20S human constitutive proteasome (CT-L activity) (Homo sapiens, UniProt P28074).
T2 construct: purchased Boston Biochem
As to the kind of experiment: Inhibition of CT-L activity of the constitutive proteasome (Suc-LLVY-AMC fluorogenic substrate). It is filed as biochemical. The conditions noted are these: inhibitor at 5 μM; remaining enzyme activity; read-out: % CP activity (remaining activity of the enzyme). On the procedure:
as §1, §2

Where a SMILES comes first, the peptide text is derived from it.

With `CC[C@@H](O)CNC(=O)C[C@@H]1CCN(Cc2ccc(C)s2)C[C@@H]1[C@H]1CC(c2ccccc2OC)=NO1` [Compound 12], the remaining activity (as a rule, the signal under treatment as a percentage of the control signal) at 5 µM amounted to 69% in assay [1] and 72% in assay [2].

Consider `COc1ccccc1C(=O)N/C(=C/c1ccc(Br)cc1)C(=O)Nc1ccc(S(=O)(=O)/N=c2\[nH]ccs2)cc1` [Compound 13], for which the remaining activity at 5 µM in assay [1] stood at 91%; in assay [2], 88%.

Take `CCN(CC)CCNC(=O)[C@H](Cc1ccc(OCc2ccccc2)cc1)NC(=O)CCC(=O)c1ccccc1` [Compound 14]: the values for the remaining activity at 5 µM in assay [1] and in assay [2] were 70% and 76%, respectively.

On to `CCOc1ccc2[nH]c3c(c2c1)CC(C(=O)NCC1CCCCC1)N[C@@H]3c1ccc(O)c([N+](=O)[O-])c1` (stereo partly drawn) [Compound 8], for which the remaining activity at 5 µM in assay [1] was found to be 90%; in assay [2], 106%.

As for `CCC[C@H]1C[C@H](C(=O)N[C@@H]([C@@H]2O[C@H](SC)[C@@H](O)[C@@H](O)[C@@H]2O)[C@@H](C)O)[N@@H+](C)C1` [Compound 2], the inhibition (in general, the percentage by which the read-out fell short of the control) at 5 µM in assay [1] (compound at 5 μM, % inhibition) lay within 36 to 85%. Also, in assay [1], the remaining activity at 5 µM was 64% and the IC50 (usually the midpoint of a concentration-inhibition curve) was determined as 22 µM. The remaining activity at 5 µM in assay [2] is 98%.

With `Cc1ccc(-c2cc(C(=O)NC[C@@H]3CCCO3)c3cc(CNS(=O)(=O)c4cccc(Cl)c4)ccc3n2)o1` [Compound 1], the “inhibition of the CT-L activity of the immunoproteasome” value in assay [1] (compound at 5 μM, % inhibition) came to 85%. In assay [1], the remaining activity at 5 µM was 15% and the IC50 was 1.7 µM. Also, the remaining activity at 5 µM in assay [2] was determined as 80%.

As to `O=C(CC[C@H](NC(=O)c1cc(-c2ccoc2)nc2ccccc12)C(=O)NCc1cc(F)ccc1F)OC1CCCCC1` [Compound 15], the figures for the remaining activity at 5 µM in assay [1] and in assay [2] were 74% and 80%, respectively.

Regarding `CCCCc1ccc2nc(-c3ccc(OC)cc3)cc(C(=O)NC[C@@H](C)C(=O)N3CCC[C@@H]3CO)c2c1` [Compound 4], the remaining activity at 5 µM in assay [1] was 79%; in assay [2], 98%.

Turning to `N=C(N)NCCC[C@@H]1NC(=O)[C@H](Cc2ccccc2)NC(=O)[C@@H](Cc2ccc(O)cc2)NC(=O)CNC(=O)[C@@H](Cc2c[nH]c3ccccc23)NC1=O` [Compound 5] (HELM PEPTIDE1{F.R.[dW].G.[dY]}$PEPTIDE1,PEPTIDE1,1:R1-5:R2$$$V2.0), the remaining activity at 5 µM stood at 81% in assay [1] and 82% in assay [2].

As for `O=C1CN(/N=C/c2ccc(-c3ccc(Cl)cc3)o2)C(=O)N1CCCCN1CCN(C[C@@H](O)c2ccccc2)CC1` [Compound 18], the remaining activity at 5 µM in assay [1] was 75%; in assay [2] it was 84%.

Turning to `CCN1CCN(CCCN2C(=O)C3[C@H](C(=O)Nc4cc(C)cc(C)c4)[C@@H]4C=C[C@]3(O4)[C@H]2C(=O)N[C@@H]2CCC[C@H](C)[C@H]2C)CC1` (stereo partly drawn) [Compound 10], the remaining activity at 5 µM in assay [1] was found to be 82%; in assay [2], 85%.

For `CC[C@H](C)[C@H](NC(=O)[C@H]([C@@H](C)CC)N(C)C(C)=O)C(=O)N[C@H](C(=O)N[C@@H](CC(C)C)C(=O)[C@@]1(C)CO1)[C@@H](C)O` [Epoxomicin, reference compound], the “inhibition by positive control” value in assay [1] (Epoxomicin at 1 tM (so in the source), positive control) was 100%.

In the case of `Cc1cccc(Nc2ccccc2C(=O)N[C@H](CC[S@+](C)[O-])C(=O)N[C@H](C)c2ccc(F)cc2)c1C` [Compound 19], the remaining activity at 5 µM in assay [1] was found to be 69%; in assay [2], 67%.

Take `C=C(CCCc1ccccc1)N[C@@H](Cc1ccc(Cl)cc1)C(=O)N[C@H](Cc1ccccc1)C(=O)N[C@H](CCCNC(=N)N)C(=O)N[C@@H](Cc1c[nH]c2ccccc12)C(N)=O` [Compound 17]: the remaining activity at 5 µM in assay [1] stood at 42%; in assay [2] it was 41%.

Take `COc1ccc(-c2cc(C(=O)N[C@H](CCC(=O)OC3CCCCC3)C(=O)NCCc3ccncc3)c3ccccc3n2)cc1C` [Compound 11]: the remaining activity at 5 µM in assay [1] and in assay [2] was 80% in each case.

For the molecule `CC[C@H](C(=O)C(=O)NCCCN1CCOCC1)N1CC(C)C[C@@H](NC(=O)OCc2ccccc2)C1=O` (stereo partly drawn) [Compound 6], the results for the remaining activity at 5 µM in assay [1] and in assay [2] were 86% and 94%, respectively.

As to `NC(=O)CC[C@H](NC(=O)[C@H](Cc1cnc[nH]1)NC(=O)OCC1c2ccccc2-c2ccccc21)C(=O)N1CCC[C@H]1C(=O)O` [Compound 7] (HELM PEPTIDE1{[O=C(OCC1c2ccccc2-c2ccccc21)[*:2]].H.Q.P}$$$$V2.0), the figures for the remaining activity at 5 µM in assay [1] and in assay [2] were 65% and 76%, respectively.

As for `Cc1ccc(OS(=O)(=O)c2cccc(C(F)(F)F)c2)c(-c2cc(-c3ccccc3)n(CCN[C@@H]3CCNC3)n2)c1` [Compound 16], the remaining activity at 5 µM in assay [1] amounted to 42%; in assay [2], 50%.

In the case of `O=C(C[C@@H]1CCN(CC2CC2)C[C@@H]1[C@H]1CC(c2ccccc2Cl)=NO1)NCCc1ccccn1` [Compound 9], the remaining activity at 5 µM in assay [1] is 87%; in assay [2], 86%.

Take `Cc1ccc(CSC[C@@H](NC(=O)c2cc(-c3ccccc3)nc3ccccc23)C(=O)NCCCN2CCCC2=O)cc1` [Compound 3]: the “inhibition of the CT-L activity of the immunoproteasome” value in assay [1] (compound at 5 μM, % inhibition) was 62%. In assay [1], the remaining activity at 5 µM stood at 38% and the IC50 was found to be 4.9 µM. Further, the remaining activity at 5 µM in assay [2] is 85%.

(Values after patent publication US9586946B2, “Selective immunoproteasome inhibitors with non-peptide scaffolds” (University of Kentucky Research Foundation, priority 2015, dated 2017).)
